Target: P. falciparum apicoplast DNA polymerase (Pf-apPOL) (Plasmodium falciparum, UniProt Q8ILY1)
Assay: Fluorescence-based high-throughput DNA polymerase assay (molecular beacon), primary screen and dose-response
Type: biochemical
Conditions: for DNA Pol: 90 min, 10 µM; for % inhibition apPOL 180' 2.5 / % inhibition apPOL 180' 5 / % inhibition apPOL 180' 10 / % inhibition apPOL 180' 20 / % inhibition apPOL 180' 40 / % inhibition apPOL 180' 80: read at 180'
How it was run: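 Single-point screening used 10 µM compound with 20 nM polymerase, 20 nM hairpin substrate and 6 µM dNTPs for 90 min at 25 °C. Confirmatory titrations (2.5–80 µM) followed fluorescence at three times, and IC50 was derived from a fit including a cooperativity term n.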

[1] = first dose-response, concentration 10

Sequence of P. falciparum apicoplast DNA polymerase (Pf-apPOL) (Q8ILY1 entry or part of it): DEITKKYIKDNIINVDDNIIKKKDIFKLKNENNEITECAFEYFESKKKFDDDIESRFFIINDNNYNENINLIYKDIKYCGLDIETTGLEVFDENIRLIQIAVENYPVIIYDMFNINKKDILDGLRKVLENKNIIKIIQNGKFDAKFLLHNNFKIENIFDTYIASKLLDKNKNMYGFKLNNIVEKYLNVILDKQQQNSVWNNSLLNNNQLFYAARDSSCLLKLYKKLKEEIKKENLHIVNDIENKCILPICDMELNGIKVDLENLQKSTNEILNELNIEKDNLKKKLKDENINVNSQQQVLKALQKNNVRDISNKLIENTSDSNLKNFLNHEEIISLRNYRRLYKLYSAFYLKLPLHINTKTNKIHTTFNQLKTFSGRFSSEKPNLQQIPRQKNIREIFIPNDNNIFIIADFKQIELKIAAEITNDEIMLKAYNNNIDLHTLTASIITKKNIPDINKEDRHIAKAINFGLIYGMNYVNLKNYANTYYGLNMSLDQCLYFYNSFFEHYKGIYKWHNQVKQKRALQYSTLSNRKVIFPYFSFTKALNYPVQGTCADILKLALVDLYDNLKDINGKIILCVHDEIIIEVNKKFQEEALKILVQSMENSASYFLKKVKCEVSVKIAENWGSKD

CCCCC(=O)N1CCc2c(nc3cc(-c4ccccc4Cl)[nH]n3c2=O)C1 [Molecule 37, CCCCC(=O)N1CCc2c(C1)nc1n(c2=O)[nH]c(c1)c1ccccc1Cl]
DNA Pol ("DNA Pol" of the 186 hits list (screen value)): 43
% inhibition Apo pol 10' (DRC-1, concentration 2.5): 9.306%
% inhibition Apo pol 10' (DRC-1, concentration 5): 24.2361%
% inhibition Apo pol 10' (DRC-1, concentration 10): 50.6318%
% inhibition Apo pol 10' (DRC-1, concentration 20): 65.8539%
% inhibition Apo pol 10' (DRC-1, concentration 40): 79.9976%
% inhibition Apo pol 10' (DRC-1, concentration 80): 82.2007%
% inhibition Apol 90' (DRC-1, concentration 2.5): 2.3506%
% inhibition Apol 90' (DRC-1, concentration 5): 13.0098%
% inhibition Apol 90' (DRC-1, concentration 10): 36.7881%
% inhibition Apol 90' (DRC-1, concentration 20): 53.1884%
% inhibition Apol 90' (DRC-1, concentration 40): 71.0429%
% inhibition Apol 90' (DRC-1, concentration 80): 81.0911%
% inhibition apPOL 180' (DRC-1, concentration 2.5): -3.183%
% inhibition apPOL 180' (DRC-1, concentration 5): 4.447%
% inhibition apPOL 180' (DRC-1, concentration 10): 22.1273%
% inhibition apPOL 180' (DRC-1, concentration 20): 36.1098%
% inhibition apPOL 180' (DRC-1, concentration 40): 57.5163%
% inhibition apPOL 180' (DRC-1, concentration 80): 72.7607%
% inhibition Apo pol 5' (DRC-2, concentration 2.5): 11%
% inhibition Apo pol 5' (DRC-2, concentration 5): 13%
% inhibition Apo pol 5' (DRC-2, concentration 10): 29%
% inhibition Apo pol 5' (DRC-2, concentration 20): 33%
% inhibition Apo pol 5' (DRC-2, concentration 40): 46%
% inhibition Apo pol 5' (DRC-2, concentration 80): 35%
% inhibition Apol 40' (DRC-2, concentration 2.5): 13%
% inhibition Apol 40' (DRC-2, concentration 5): 15%
% inhibition Apol 40' (DRC-2, concentration 10): 33%
% inhibition Apol 40' (DRC-2, concentration 20): 38%
% inhibition Apol 40' (DRC-2, concentration 40): 62%
% inhibition Apol 40' (DRC-2, concentration 80): 62%
% inhibition ApPOL 90' (DRC-2, concentration 2.5): 12%
% inhibition ApPOL 90' (DRC-2, concentration 5): 13%
% inhibition ApPOL 90' (DRC-2, concentration 10): 30%
% inhibition ApPOL 90' (DRC-2, concentration 20): 35%
% inhibition ApPOL 90' (DRC-2, concentration 40): 63%
% inhibition ApPOL 90' (DRC-2, concentration 80): 68%
% inhibition apPOL 180' (DRC-2, concentration 2.5): 7%
% inhibition apPOL 180' (DRC-2, concentration 5): 8.42%
% inhibition apPOL 180' (DRC-2, concentration 10): 23%
% inhibition apPOL 180' (DRC-2, concentration 20): 23%
% inhibition apPOL 180' (DRC-2, concentration 40): 55%
% inhibition apPOL 180' (DRC-2, concentration 80): 68%
DNA Pol (primary screen value, DNA Pol): 43

Cn1nc(-c2nc(-c3ccccc3)no2)c2c1CCN(C(=O)Cc1cccs1)C2 [Molecule 58, O=C(N1CCc2c(C1)c(nn2C)c1onc(n1)c1ccccc1)Cc1cccs1]
DNA Pol (186 hits, DNA Pol (screen value), unit not given): 38
DNA Pol ('DNA Pol' (screen value), unit not given): 38
% inhibition Apo pol 10' 2.5 (DRC-1, read at 10', concentration 2.5): 10%
% inhibition Apo pol 10' 5 (DRC-1, read at 10', concentration 5): 10%
% inhibition Apo pol 10' 10 (DRC-1, read at 10', concentration 10): 35%
% inhibition Apo pol 10' 20 (DRC-1, read at 10', concentration 20): 48%
% inhibition Apo pol 10' 40 (DRC-1, read at 10', concentration 40): 65%
% inhibition Apo pol 10' 80 (DRC-1, read at 10', concentration 80): 65%
% inhibition Apol 90' 2.5 (DRC-1, read at 90', concentration 2.5): -0.451%
% inhibition Apol 90' 5 (DRC-1, read at 90', concentration 5): 2.41%
% inhibition Apol 90' 10 (DRC-1, read at 90', concentration 10): 21%
% inhibition Apol 90' 20 (DRC-1, read at 90', concentration 20): 37%
% inhibition Apol 90' 40 (DRC-1, read at 90', concentration 40): 58%
% inhibition Apol 90' 80 (DRC-1, read at 90', concentration 80): 67%
% inhibition apPOL 180' 2.5 (DRC-1, concentration 2.5): -6%
% inhibition apPOL 180' 5 (DRC-1, concentration 5): -3.68%
% inhibition apPOL 180' 10 (DRC-1, concentration 10): 9%
% inhibition apPOL 180' 20 (DRC-1, concentration 20): 21%
% inhibition apPOL 180' 40 (DRC-1, concentration 40): 45%
% inhibition apPOL 180' 80 (DRC-1, concentration 80): 62%
% inhibition Apo pol 5' (DRC-2, concentration 5): 10%
% inhibition Apol 40' (DRC-2, concentration 2.5): 9%
% inhibition ApPOL 90' (DRC-2, concentration 40): 54%
% inhibition ApPOL 90' (DRC-2, concentration 80): 54%
% inhibition Apo pol 5' 2.5 (DRC-2, read at 5', concentration 2.5): 7.55%
% inhibition Apo pol 5' 5 (DRC-2, read at 5', concentration 5): 10%
% inhibition Apo pol 5' 10 (DRC-2, read at 5', concentration 10): 18%
% inhibition Apo pol 5' 20 (DRC-2, read at 5', concentration 20): 27%
% inhibition Apo pol 5' 40 (DRC-2, read at 5', concentration 40): 28%
% inhibition Apo pol 5' 80 (DRC-2, read at 5', concentration 80): 16%
% inhibition Apol 40' 2.5 (DRC-2, read at 40', concentration 2.5): 9%
% inhibition Apol 40' 5 (DRC-2, read at 40', concentration 5): 13%
% inhibition Apol 40' 10 (DRC-2, read at 40', concentration 10): 24%
% inhibition Apol 40' 20 (DRC-2, read at 40', concentration 20): 39%
% inhibition Apol 40' 40 (DRC-2, read at 40', concentration 40): 51%
% inhibition Apol 40' 80 (DRC-2, read at 40', concentration 80): 47%
% inhibition ApPOL 90' 2.5 (DRC-2, read at 90', concentration 2.5): 7.37%
% inhibition ApPOL 90' 5 (DRC-2, read at 90', concentration 5): 11%
% inhibition ApPOL 90' 10 (DRC-2, read at 90', concentration 10): 23%
% inhibition ApPOL 90' 20 (DRC-2, read at 90', concentration 20): 40%
% inhibition ApPOL 90' 40 (DRC-2, read at 90', concentration 40): 54%
% inhibition ApPOL 90' 80 (DRC-2, read at 90', concentration 80): 54%
% inhibition apPOL 180' 2.5 (DRC-2, concentration 2.5): 3.22%
% inhibition apPOL 180' 5 (DRC-2, concentration 5): 6%
% inhibition apPOL 180' 10 (DRC-2, concentration 10): 15%
% inhibition apPOL 180' 20 (DRC-2, concentration 20): 31%
% inhibition apPOL 180' 40 (DRC-2, concentration 40): 52%
% inhibition apPOL 180' 80 (DRC-2, concentration 80): 56%
% inhibition Apo pol 10' (first dose-response, concentration 2.5): 10%
% inhibition Apo pol 10' (first dose-response, concentration 5): 10%
% inhibition Apo pol 10' (first dose-response, concentration 40): 65%
% inhibition Apo pol 10' (first dose-response, concentration 80): 65%
% inhibition Apol 90' [1]: 21%
% inhibition apPOL 180' [1]: 9%
% inhibition apPOL 180' (first dose-response, concentration 20): 21%

O=C1c2ccccc2C(=O)N1Oc1ccc([N+](=O)[O-])c([N+](=O)[O-])c1 [Molecule 66, O=N(=O)c1cc(ccc1N(=O)=O)ON1C(=O)c2c(C1=O)cccc2]
DNA Pol ('DNA Pol' of the 186 hits list (primary screen value)): 72
DNA Pol (DNA Pol (primary screen value)): 72
% inhibition Apo pol 10' (DRC-1, concentration 2.5): 7.12%
% inhibition Apo pol 10' (DRC-1, concentration 5): 12.8299%
% inhibition Apo pol 10' (DRC-1, concentration 10): 14.545%
% inhibition Apo pol 10' (DRC-1, concentration 20): 24.992%
% inhibition Apo pol 10' (DRC-1, concentration 40): 53.6709%
% inhibition Apo pol 10' (DRC-1, concentration 80): 72.2964%
% inhibition Apol 90' (DRC-1, concentration 2.5): 2.278%
% inhibition Apol 90' (DRC-1, concentration 5): 9.738%
% inhibition Apol 90' (DRC-1, concentration 10): 13.1271%
% inhibition Apol 90' (DRC-1, concentration 20): 22.9091%
% inhibition Apol 90' (DRC-1, concentration 40): 49.4397%
% inhibition Apol 90' (DRC-1, concentration 80): 69.1434%
% inhibition apPOL 180' (DRC-1, concentration 2.5): -1.453%
% inhibition apPOL 180' (DRC-1, concentration 5): 3.779%
% inhibition apPOL 180' (DRC-1, concentration 10): 7.291%
% inhibition apPOL 180' (DRC-1, concentration 20): 17.0641%
% inhibition apPOL 180' (DRC-1, concentration 40): 43.6341%
% inhibition apPOL 180' (DRC-1, concentration 80): 66.4384%
% inhibition Apo pol 5' (DRC-2, concentration 2.5): 1.26%
% inhibition Apo pol 5' (DRC-2, concentration 5): 6%
% inhibition Apo pol 5' (DRC-2, concentration 10): 12%
% inhibition Apo pol 5' (DRC-2, concentration 20): 27%
% inhibition Apo pol 5' (DRC-2, concentration 40): 40%
% inhibition Apo pol 5' (DRC-2, concentration 80): 51%
% inhibition Apol 40' (DRC-2, concentration 2.5): 6.34%
% inhibition Apol 40' (DRC-2, concentration 5): 11%
% inhibition Apol 40' (DRC-2, concentration 10): 18%
% inhibition Apol 40' (DRC-2, concentration 20): 35%
% inhibition Apol 40' (DRC-2, concentration 40): 48%
% inhibition Apol 40' (DRC-2, concentration 80): 62%
% inhibition ApPOL 90' (DRC-2, concentration 2.5): 5%
% inhibition ApPOL 90' (DRC-2, concentration 5): 9.49%
% inhibition ApPOL 90' (DRC-2, concentration 10): 17%
% inhibition ApPOL 90' (DRC-2, concentration 20): 36%
% inhibition ApPOL 90' (DRC-2, concentration 40): 50%
% inhibition ApPOL 90' (DRC-2, concentration 80): 66%
% inhibition apPOL 180' (DRC-2, concentration 2.5): 3%
% inhibition apPOL 180' (DRC-2, concentration 5): 5.62%
% inhibition apPOL 180' (DRC-2, concentration 10): 13%
% inhibition apPOL 180' (DRC-2, concentration 20): 32%
% inhibition apPOL 180' (DRC-2, concentration 40): 48%
% inhibition apPOL 180' (DRC-2, concentration 80): 68%

From paper PMC9090415, “Discovery of small molecule inhibitors of Plasmodium falciparum apicoplast DNA polymerase” (Journal of Enzyme Inhibition and Medicinal Chemistry, 2022)
